# Test results: patent publication US11981729B2, “Method” (Agency for Science, Technology and Research, priority 2020, dated 2024)
# Tests used:
# [1] = system: MDA ER-G2 cells; experiment: ECM degradation assay, MDA ER-G2 on rat tail ECM; type: cell-based, human; conditions: for ECM degradation: MDA ER-G2, 1 mM GSH supplemented, or GPx and H2O2, vs untreated cells; for ECM degradation after ECM pre-treatment: ECM pre-treated before cell seeding
# Protocol: (§1) Gelatin (#G1393, Sigma) was first coupled to 5-carboxy-X-rhodamine succinimidyl ester (#C-6125, ThermoFisher Scientific). Sterile coverslips were coated with gelatin for 20 min, then fixed with 0.5% glutaraldehyde (#15960, Electron Microscopy Sciences) for 40 min. After washing, a layer of 0.5 mg/ml type I collagen (#354236 rat tail, Corning) was coated onto these gelatin coverslips and incubated 4 h at 37° C. before cell seeding. Cells were incubated overnight before fixation and staining. At least 20 images were acquired for each condition, experiments were done in 3 biological replicates. The area of degradation was quantified using ImageJ and normalized to the number of nuclei in each image. To chemically reduce collagen disulfide bonds before cell seeding and ECM degradation assay, a 0.5 mg/ml type I collagen matrix was coated onto red gelatin coverslips and incubated 4 h at 37° C. for polymerization. Collagen was incubated with 2.5 mM TCEP (#64, 654-7, Sigma Aldrich) for 30 min at room temperature, rinsed 3 times with 1% BSA in PBS, and incubated with 5 mM N-ethylmaleimide (NEM #23030, ThermoFisher Scientific) for 30 min at room temperature. Coverslips were gently rinsed 3 more times with 1% BSA in PBS before cell seeding and ECM degradation assay. To study the involvement of GSH in collagen disulfide bond reduction, cells were seeded on red gelatin and collagen I coated coverslips to proceed to ECM degradation assay. Cells were incubated 2 h to adhere and where then incubated with 1 mM L-gluthatione reduced (GSH #4251, Sigma Aldrich) overnight before fixation. For the opposite experiment, cells were seeded into red gelatin and collagen I coated coverslips, incubated 2 h to adhere and treated with 10 mg GPx1 (SRP-8010, Sigma Aldrich) and H2O2 every 30 min for 6 hours before fixation. ECM degradation quantification was performed as described above. siRNA oligonucleotides were purchased from Dharmacon. Endogenous Cnx was depleted by 2 rounds of siRNA transfection. Briefly, cells were first treated by reverse transfection with 25 nM of control siRNA ([NT]) or siRNA against [NT]) using Lipofectamine RNAiMAX (ThermoFisher Scientific). The day after, cells were treated again by forward transfection with nM siRNA diluted in Opti-MEM medium (Gibco) and incubated 5 more days before analyzing. Since GALA stimulates ECM degradation and Cnx is present in the responsible subcellular structures, we next asked whether surface Cnx is involved in this activity. To measure ECM degradation, we used a sandwich of fluorescently labeled gelatin overlaid with native ECM of different sources. […] We quantified ECM degradative activity by measuring the loss of fluorescent gelatin using automated image analysis (FIG. 8C). […]
# [2] = system: NIH3T3vSrc cells; experiment: ECM degradation assay, NIH3T3vSrc on rat tail ECM; type: cell-based, mouse; conditions: for ECM degradation: 1 mM GSH supplemented, or GPx and H2O2, vs untreated cells
# Protocol: as §1, with “image.” for “image. To chemically reduce collagen disulfide bonds before cell seeding and ECM degradation assay, a 0.5 mg/ml type I collagen matrix was coated onto red gelatin coverslips and incubated 4 h at 37° C. for polymerization. Collagen was incubated with 2.5 mM TCEP (#64, 654-7, Sigma Aldrich) for 30 min at room temperature, rinsed 3 times with 1% BSA in PBS, and incubated with 5 mM N-ethylmaleimide (NEM #23030, ThermoFisher Scientific) for 30 min at room temperature. Coverslips were gently rinsed 3 more times with 1% BSA in PBS before cell seeding and ECM degradation assay.”, “activity.” for “activity. To measure ECM degradation, we used a sandwich of fluorescently labeled gelatin overlaid with native ECM of different sources.”
# [3] = system: NIH3T3vSrc cells; experiment: Cell-mediated ECM disulfide bond reduction (NEM / OX133 staining); type: cell-based, mouse; conditions: NIH3T3vSrc on rat tail ECM, GM6001 and NEM, 16 hours; Cnx depleted vs control cells
# Description: In the ER, the Cnx-ERp57 complex mediates the formation and isomerization of disulfide bonds in neo-synthesized proteins^40. To explain the surprising requirement of the same complex for matrix degradation, we hypothesized it could mediate the reduction of disulfide bonds in extracellular ECM fibers. To reveal disulfide bonds in ECM preparations, we used the reducing agent tris(2-carboxyethyl)phosphine (TCEP), followed by reaction with N-ethylmaleimide (NEM). […] To test whether disulfide bonds are present in liver ECM, we prepared decellularized mouse liver tissue. The decellularized matrix presented as a meshwork with a diamond-shaped pattern, the fibers staining for Collagen I, III, IV, and fibronectin (FIGS. 4B, FIG. 9A, FIG. 9B). […] We also tested the commercially-sourced liver porcine ECM and the rat tail connective tissue and obtained in both cases an abundant staining with OX133 after TECP/NEM treatment (FIG. 9C). This staining was entirely dependent on TCEP and NEM. In all cases, most of the OX133 signal colocalized with collagen fibers.
# To test if cells are able to reduce these disulfide bonds, the actively degrading NIH3T3vSrc cells were sparsely seeded on rat tail ECM. The cells were treated with the MMP inhibitor GM6001 to prevent collagen degradation. NEM was then added to reveal reduced cysteines and after 16 hours, coverslips were fixed and labeled. […]
# [4] = system: NIH3T3vSrc cells; experiment: Invadosome rosette formation after Cnx depletion; type: cell-based, mouse; conditions: siCnx vs siNT5
# Protocol: siRNA oligonucleotides were purchased from Dharmacon. Endogenous Cnx was depleted by 2 rounds of siRNA transfection. Briefly, cells were first treated by reverse transfection with 25 nM of control siRNA (5′-UGGUUUACAUGUCGACUAA-3′) or siRNA against Cnx (5′-[…]-3′) using Lipofectamine RNAiMAX (ThermoFisher Scientific). The day after, cells were treated again by forward transfection with nM siRNA diluted in Opti-MEM medium (Gibco) and incubated 5 more days before analyzing.
# (§2) To better understand this Cnx requirement, we tested whether Cnx depletion affected invadosomes formation, which we measured in NIH3T3vSrc because of the abundance of invadosomes and ease of detection in these cells (FIG. 2E). Given the lack of effect, we hypothesized an effect on Matrix Metalloproteinases and measured MMP2, 9 and 14 abundance by western blot (FIG. 8F). We also measured MMPs activity in a cell lysate and MMP14 localization in invadosomes rosettes after Cnx depletion (FIG. 8G, FIG. 8H).
# [5] = system: MMPs; experiment: FRET-based MMP activity assay on cell lysates; type: biochemical; conditions: MDA ER-G2 after Cnx depletion
# Protocol: In order to quantify total MMP activity, we used a FRET-based MMP activity assay kit (ab112147), on cell lysates, according to the manufacturer's protocol. Fluorescence was read at 540 nm using a microplate reader (Tecan) every 5 min for 2 h.
# as §2
# [6] = system: MMP2, 9 and 14; experiment: MMP protein level by western blot after Cnx depletion; type: cell-based; conditions: NIH3T3vSrc after Cnx depletion
# Protocol: Cells were washed twice with ice-cold PBS, scraped in ice-cold RIPA lysis buffer (50 mM Tris, 200 mM NaCl, 0.5% NP-40, Complete and PhoStop inhibitor [Roche Applied Science]) and lysed for 30 min at 4° C. Lysates were then clarified by centrifugation at 13000 g for 10 min at 4° C. Lysate concentrations were determined using Bradford reagent (Bio-Rad). Lysates were boiled at 95° C. for 5 min and separated by SDS-PAGE electrophoresis using 4-12% Bis-Tris NuPage gels (Invitrogen) at 180V for 70 min. Samples were then transferred on nitrocellulose membranes using iBlot transfer system (Invitrogen) and blocked using 3% BSA dissolved in TBST (50 mM Tris, 150 mM NaCl and 0.1% Tween-20) for 1 h at room temperature. Membranes were then incubated with primary antibodies (1/1000 diluted in 3% BSA-TBST) overnight at 4° C. […]
# as §2
# [7] = system: MMP14; experiment: MMP14 localization in invadosome rosettes (immunofluorescence); type: cell-based; conditions: NIH3T3vSrc after Cnx depletion
# Protocol: Cells were seeded on coverslips, at 70 000 cells per well in a 24-well plate (ThermoFisher Scientific) and incubated overnight. Cells were fixed with 4% paraformaldehyde (PFA) in Phosphate Buffered Saline (PBS, Gibco) for 10 min, rinsed 3 times with PBS and then permeabilized with 0.2% Triton X-100 for 10 min. Cells were incubated with primary antibodies (1/100 diluted in 2% FBS-PBS) for 1 h 30 at room temperature, rinsed 3 times with PBS and incubated with secondary antibodies (1/200 diluted in 2% FBS-PBS) for 40 min before being rinsed and mounted on microscope slides.
# as §2
molecule,measurement,setting,value
"N[C@@H](CCC(=O)N[C@@H](CS)C(=O)NCC(=O)O)C(=O)O [GSH, L-gluthatione reduced]",ECM degradation,[1],more efficient at ECM degradation
same,ECM degradation,[2],more efficient at ECM degradation
"Cl.O=C(O)CCP(CCC(=O)O)CCC(=O)O [TCEP, Tris(2-carboxyethyl)phosphine hydrochloride]",ECM degradation after ECM pre-treatment,[1]; MDA ER-G2 control cells,stimulatory effect on ECM degradation
same,ECM degradation after ECM pre-treatment,[1]; MDA ER-G2 depleted of Cnx or ERp57,completely reversed the inhibitory effect of Cnx depletion
5′-CAAGAGUGGUCCUAGGAGAUU-3′ [siCnx],OX133 staining of ECM (reduced disulfide bonds),[3],significantly reduced
same,matrix degradation,"[2]; siRNA depletion vs control siRNA (siNT5), listed as siRNA targeting Cnx",similarly reduced ECM degradation
same,rosette formation (number of rosettes per cell and percentage of cells making rosettes),[4],non significant
same,MMPs activity in a cell lysate,[5],could not detect any difference
same,"MMP2, 9 and 14 abundance by western blot",[6],could not detect any difference
same,MMP14 localization in invadosomes rosettes,[7],could not detect any difference
"GPx: GSH peroxidase GPx1 (SRP-8010, Sigma Aldrich), given to cells together with H2O2 (protein, UniProt P00435 1-205, looked up) Glutathione peroxidase 1: MCAAQRSAAALAAAAPRTVYAFSARPLAGGEPFNLSSLRGKVLLIENVASLUGTTVRDYTQMNDLQRRLGPRGLVVLGFPCNQFGHQENAKNEEILNCLKYVRPGGGFEPNFMLFEKCEVNGEKAHPLFAFLREVLPTPSDDATALMTDPKFITWSPVCRNDVSWNFEKFLVGPDGVPVRRYSRRFLTIDIEPDIETLLSQGASA",ECM degradation,[1],less efficient ECM degradation
same,ECM degradation,[2],less efficient ECM degradation
